This passage reports IC50 and inhibition results from ChEMBL document CHEMBL1130726, “Novel cytokine release inhibitors. Part III: Truncated analogs of tripterine” (Bioorg Med Chem Lett, 1998).

Molecules are shown by their SMILES.

Assay type in all cases: functional
The species named for assay [1] is Homo sapiens. Nature of the assay: Inhibitory activity against LPS-stimulated IL-1 beta release from human monocytes.
The species named for assay [2] is Homo sapiens. Nature of the assay: Compound was tested for inhibitory effect on LPS-stimulated IL-6 release from human monocytes.
For assay [3], the species on record is Homo sapiens. As to the kind of experiment: Compound was tested for inhibitory effect on LPS-stimulated IL-1 alpha release from human monocytes.
The species named for assay [4] is Homo sapiens. Nature of the assay: Compound was tested for inhibitory effect on LPS-stimulated TNF-alpha release from human monocytes.
The species named for assay [5] is Homo sapiens. Nature of the assay: Compound was tested for inhibitory effect on LPS-stimulated IL-8 release from human monocytes.
The species named for assay [6] is Homo sapiens. Nature of the assay: Compound was tested for inhibitory effect on LPS-stimulated PGE-2 release from human monocytes.
The species named for assay [7] is Homo sapiens. Nature of the assay: Compound was tested for inhibitory activity against LPS-stimulated IL-1 beta release from human monocytes; 80-700.
The species named for assay [8] is Homo sapiens. As to the kind of experiment: Compound was tested for inhibitory effect on LPS-stimulated IL-1 beta release from human monocytes.
For assay [9], the species on record is Homo sapiens. As to the kind of experiment: Compound was tested for inhibitory activity against LPS-stimulated IL-1 beta release from human monocytes at concentration 3000 nM.

The IC50 is the midpoint of a concentration-inhibition curve. A lower IC50 goes with greater potency. Broadly, the inhibition is how much of the control response was suppressed. High values mean a response far below the control, low ones a response near the control.

`Cc1c(O)c(O)cc2c1CC=C1C(C)(C)C(=O)CCC12C` (stereo not drawn) registered an IC50 in the assay filed under Homo sapiens [1] of 300 nM.

`CC(=O)Oc1cc2c(c(C)c1OC(C)=O)CC=C1[C@@]3(C)CCC(=O)C(C)=C3CC[C@]12C` displayed an IC50 in the assay filed under Homo sapiens [1] of 80 nM.

Consider `COc1cc2c(c(C)c1OC)C=CC1=C(C)C(=O)CCC12C` (stereo not drawn), for which the IC50 in the assay listed under Homo sapiens [2] was determined as 340 nM; in the assay filed under Homo sapiens [3] it was 130 nM; in the assay listed under Homo sapiens [4], 190 nM; in the assay listed under Homo sapiens [5] it was 480 nM; in the assay filed under Homo sapiens [6], 450 nM.

Consider `COc1cc2c(c(C)c1O)CC=C1C(C)(C)C(=O)CCC12C` (stereo not drawn), for which the IC50 in the assay listed under Homo sapiens [1] was found to be 700 nM.

As for `CC(=O)Oc1cc2c(cc1OC(C)=O)[C@]1(C)CC[C@H]3C(C)(C)C(=O)CC[C@]3(C)C1=CC2`, the IC50 in the assay listed under Homo sapiens [1] was determined as 140 nM.

Regarding `COc1cc2c(c(C)c1OC)CCC(=O)C2C` (stereo not drawn), the IC50 in the assay listed under Homo sapiens [2] was found to be 430 nM; in the assay filed under Homo sapiens [3], 240 nM; in the assay listed under Homo sapiens [4], 460 nM; in the assay listed under Homo sapiens [5] it was 1000 nM; in the assay filed under Homo sapiens [6] it was 520 nM.

Consider `CC1=C(O)C(=O)C=C2C1=CC=C1C(C)(C)C(=O)CCC21C` (stereo not drawn), for which the IC50 in the assay filed under Homo sapiens [7] was found to be 80 nM.

Compound `CC(=O)Oc1cc2c(c(C)c1OC(C)=O)CC=C1C(C)(C)C(=O)CC[C@]12C` had an IC50 in the assay listed under Homo sapiens [1] of 200 nM.

The compound `CC(=O)Oc1cc2c(c(C)c1OC(C)=O)CC(C(C)=O)=C1[C@@]2(C)CC[C@H]2OC(=O)C[C@]12C` showed an IC50 in the assay filed under Homo sapiens [1] of 900 nM.

For `CC(=O)Oc1cc2c(c(C)c1OC(C)=O)CCC1=C(C)C(=O)CCC12C` (stereo not drawn), the IC50 in the assay filed under Homo sapiens [2] was determined as 250 nM; in the assay filed under Homo sapiens [1] it was 2400 nM; in the assay listed under Homo sapiens [3] it was 100 nM; in the assay filed under Homo sapiens [4], 190 nM; in the assay listed under Homo sapiens [5] it was 300 nM; in the assay listed under Homo sapiens [8] it was 80 nM. In addition, in the assay filed under Homo sapiens [6], the IC50 came to 200 nM.

Take `CC(=O)Oc1cc2c(c(C)c1OC(C)=O)C=CC1=C(C)C(=O)CCC12C` (stereo not drawn): the IC50 is 400 nM in the assay filed under Homo sapiens [2]; 700 nM in the assay filed under Homo sapiens [1]; 220 nM in the assay listed under Homo sapiens [3]; 500 nM in the assay listed under Homo sapiens [4]; 930 nM in the assay listed under Homo sapiens [5]; 180 nM in the assay filed under Homo sapiens [8]. This compound returned a half-inhibitory concentration (IC50) in the assay listed under Homo sapiens [6] of 600 nM.

Take `CC(=O)Oc1cc2c(c(C)c1OC(C)=O)CC=C1[C@@]2(C)CC[C@H]2OC(=O)C[C@]12C`: in the assay listed under Homo sapiens [1], the IC50 came to 200 nM.

For `CCOC(=O)C[C@@]1(C)C(=O)CC[C@@]2(C)c3cc(OC(C)=O)c(OC(C)=O)cc3CC[C@H]12`, the IC50 in the assay listed under Homo sapiens [1] was determined as 2200 nM.

`CC(=O)Oc1cc2c(c(C)c1OC(C)=O)CC=C1C(C)(C)[C@H](OC(C)=O)CC[C@]12C` showed an IC50 in the assay listed under Homo sapiens [1] of 100 nM.

Consider `CC(=O)Oc1cc2c(cc1OC(C)=O)[C@]1(C)CCC(=O)[C@](C)(Cc3ccc(C(=O)O)cc3)[C@H]1CC2`, for which the inhibition at 3 µM in the assay filed under Homo sapiens [9] was 16%.

For `CC(=O)Oc1cc2c(c(C)c1OC(C)=O)CC=C1C(C)(C)C(=O)CCC12C` (stereo not drawn), in the assay filed under Homo sapiens [1], it took 200 nM to reach half-maximal inhibition (IC50).

In the case of `CC1=C(O)C(=O)C=C2C1=CC=C1[C@@]2(C)CC[C@@]2(C)[C@@H]3C[C@](C)(C(=O)O)CC[C@]3(C)CC[C@]12C` [CELASTROL], the IC50 in the assay filed under Homo sapiens [2] was 80 nM; in the assay filed under Homo sapiens [1] it was 40 nM; in the assay filed under Homo sapiens [3] it was 40 nM; in the assay filed under Homo sapiens [4], 210 nM; in the assay filed under Homo sapiens [5], 210 nM; in the assay filed under Homo sapiens [8], 40 nM. In the assay listed under Homo sapiens [6], this compound had an IC50 of 110 nM.
